Drawing on the Kinase Knowledgebase extract (Sharma et al. 2016), this text covers IC50 for 33 molecules.

Experiment [1] concerns the target PIK3CA (human) (UniProt P42336). The experiment is described as follows: Assessment of PIK3CA Kinase Activity Using Homogenous Solution Phase Assay.
Experiment [2] shares this target. The experiment is described as follows: Assessment of PIK3CA Kinase Activity Using One Step Solid Phase Assay.

PIK3CA (human), sequence (P42336 whole entry, looked up): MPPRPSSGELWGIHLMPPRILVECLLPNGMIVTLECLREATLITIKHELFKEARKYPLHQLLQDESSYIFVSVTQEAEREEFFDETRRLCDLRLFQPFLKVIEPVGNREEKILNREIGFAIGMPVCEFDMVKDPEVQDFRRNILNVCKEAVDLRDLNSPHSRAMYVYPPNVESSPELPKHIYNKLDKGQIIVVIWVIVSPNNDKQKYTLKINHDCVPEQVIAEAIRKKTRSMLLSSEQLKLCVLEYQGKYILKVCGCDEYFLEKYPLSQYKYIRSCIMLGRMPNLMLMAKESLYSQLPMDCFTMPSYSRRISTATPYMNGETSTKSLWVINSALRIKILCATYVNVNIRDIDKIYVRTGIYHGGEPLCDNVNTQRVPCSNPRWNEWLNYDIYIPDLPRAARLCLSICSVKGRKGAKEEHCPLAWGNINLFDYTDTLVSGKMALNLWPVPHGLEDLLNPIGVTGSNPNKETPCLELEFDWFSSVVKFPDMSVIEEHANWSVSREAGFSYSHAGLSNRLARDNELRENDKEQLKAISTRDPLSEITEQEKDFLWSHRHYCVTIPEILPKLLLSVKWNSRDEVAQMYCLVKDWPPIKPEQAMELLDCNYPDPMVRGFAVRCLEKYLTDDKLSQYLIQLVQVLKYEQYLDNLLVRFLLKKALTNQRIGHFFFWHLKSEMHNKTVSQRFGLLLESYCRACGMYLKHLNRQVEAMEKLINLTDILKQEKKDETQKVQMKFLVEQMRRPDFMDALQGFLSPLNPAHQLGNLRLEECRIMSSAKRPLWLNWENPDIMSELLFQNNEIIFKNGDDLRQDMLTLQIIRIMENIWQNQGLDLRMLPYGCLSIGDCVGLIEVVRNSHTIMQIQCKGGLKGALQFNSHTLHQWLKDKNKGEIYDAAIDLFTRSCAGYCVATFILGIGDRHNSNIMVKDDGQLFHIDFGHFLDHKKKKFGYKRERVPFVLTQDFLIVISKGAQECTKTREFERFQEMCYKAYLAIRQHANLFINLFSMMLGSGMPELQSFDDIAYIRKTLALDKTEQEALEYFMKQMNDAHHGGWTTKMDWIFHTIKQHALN

In general, IC50 refers to the midpoint of a concentration-inhibition curve. On to `Oc1cc(-c2cc(Nc3cccnc3)nc(N3CCOCC3)n2)ccc1Cl`, for which the IC50 at PIK3CA (human) [1] and against PIK3CA (human) [2] was less than 20 µM throughout.
As for `Oc1ccc(F)c(-c2cc(Nc3cccnc3)nc(N3CCOCC3)n2)c1`, the 50% inhibitory concentration (IC50) against PIK3CA (human) [1] and at PIK3CA (human) [2] was less than 20 µM throughout.
Consider `CC(C)C(=O)Oc1cccc(-c2cc(Nc3cccnc3)nc(N3CCOCC3)n2)c1`, for which the IC50 on PIK3CA (human) [1] and against PIK3CA (human) [2] was less than 20 µM throughout.
On to `C[C@@H](Nc1cc(-c2cccc(O)c2)nc(N2CCOCC2)n1)c1ccccc1`, for which the IC50 on PIK3CA (human) [1] and on PIK3CA (human) [2] was less than 20 µM each time.
Turning to `COCCNc1cc(-c2cccc(O)c2)nc(N2CCOCC2)n1`, the IC50 at PIK3CA (human) [1] and against PIK3CA (human) [2] was less than 20 µM each time.
On to `Oc1ccc(Br)c(-c2cc(Nc3cccnc3)nc(N3CCOCC3)n2)c1`, for which the IC50 on PIK3CA (human) [1] and against PIK3CA (human) [2] was less than 20 µM each time.
In the case of `COC(=O)Oc1cccc(-c2cc(Nc3cccnc3)nc(N3CCOCC3)n2)c1`, the IC50 on PIK3CA (human) [1] and against PIK3CA (human) [2] was less than 20 µM in each case.
As for `Oc1cccc(-c2cc(Nc3cccnc3)nc(N3CCOCC3)n2)c1F`, the IC50 against PIK3CA (human) [1] and against PIK3CA (human) [2] was less than 20 µM in each case.
With `CCOc1ccc(NC(C)=O)cc1Nc1cc(-c2cccc(O)c2)nc(N2CCOCC2)n1`, the IC50 at PIK3CA (human) [1] and at PIK3CA (human) [2] was less than 20 µM in each case.
In the case of `COc1cccc(-c2cc(N3CCOCC3)nc(N3CCOCC3)n2)c1`, the IC50 at PIK3CA (human) [1] and at PIK3CA (human) [2] was less than 20 µM throughout.
As for `Oc1cccc(-c2cc(Nc3ccc(O)nc3)nc(N3CCOCC3)n2)c1`, the IC50 against PIK3CA (human) [1] and against PIK3CA (human) [2] was less than 20 µM throughout.
Turning to `Oc1cccc(-c2cc(N3CCN(c4ccccn4)CC3)nc(N3CCOCC3)n2)c1`, the IC50 at PIK3CA (human) [1] and at PIK3CA (human) [2] was less than 20 µM each time.
As to `Nc1cccc(-c2cc(Nc3cccnc3)nc(N3CCOCC3)n2)c1`, the IC50 at PIK3CA (human) [1] and on PIK3CA (human) [2] was less than 20 µM each time.
As for `Oc1cccc(-c2cc(NCc3ccccn3)nc(N3CCOCC3)n2)c1`, the IC50 at PIK3CA (human) [1] and at PIK3CA (human) [2] was less than 20 µM in each case.
In the case of `O=[N+]([O-])c1ccc(N2CCN(c3cc(-c4cccc(O)c4)nc(N4CCOCC4)n3)CC2)cc1`, the IC50 on PIK3CA (human) [1] and against PIK3CA (human) [2] was less than 20 µM throughout.
With `Oc1cccc(-c2cc(Nc3ncccn3)nc(N3CCOCC3)n2)c1`, the IC50 on PIK3CA (human) [1] and against PIK3CA (human) [2] was less than 20 µM in each case.
As to `Oc1cccc(-c2cc(Nc3ccc4nn[nH]c4c3)nc(N3CCOCC3)n2)c1`, the IC50 against PIK3CA (human) [1] and against PIK3CA (human) [2] was less than 20 µM each time.
Regarding `Oc1cccc(-c2cc(NCCc3ccncc3)nc(N3CCOCC3)n2)c1`, the IC50 against PIK3CA (human) [1] and against PIK3CA (human) [2] was less than 20 µM throughout.
For the molecule `Cc1ccc(-c2cc(Nc3cccnc3)nc(N3CCOCC3)n2)cc1O`, the IC50 against PIK3CA (human) [1] and against PIK3CA (human) [2] was less than 20 µM in each case.
On to `CC(C)C(N)C(=O)Oc1cccc(-c2cc(Nc3cccnc3)nc(N3CCOCC3)n2)c1` (stereo not drawn), for which the IC50 on PIK3CA (human) [1] and on PIK3CA (human) [2] was less than 20 µM each time.
With `CC(C)(C)C(=O)Oc1cccc(-c2cc(Nc3cccnc3)nc(N3CCOCC3)n2)c1`, the half-inhibitory concentration (IC50) on PIK3CA (human) [1] and against PIK3CA (human) [2] was less than 20 µM each time.
As for `CC(=O)Oc1cccc(-c2cc(Nc3cccnc3)nc(N3CCOCC3)n2)c1`, the IC50 on PIK3CA (human) [1] and against PIK3CA (human) [2] was less than 20 µM throughout.
With `c1cc(OCCN2CCCCC2)cc(-c2cc(Nc3ccc4[nH]ncc4c3)nc(N3CCOCC3)n2)c1`, the IC50 at PIK3CA (human) [1] and at PIK3CA (human) [2] was less than 20 µM in each case.
On to `Oc1cccc(-c2cc(N3CCCNCC3)nc(N3CCOCC3)n2)c1`, for which the IC50 against PIK3CA (human) [1] and on PIK3CA (human) [2] was less than 20 µM each time.
On to `CS(=O)(=O)Nc1cccc(-c2cc(Nc3cccnc3)nc(N3CCOCC3)n2)c1`, for which the IC50 against PIK3CA (human) [1] and against PIK3CA (human) [2] was less than 20 µM each time.
For `C[C@@H]1COC[C@H](C)N1c1cc(-c2cccc(O)c2)nc(N2CCOCC2)n1`, the IC50 at PIK3CA (human) [1] and on PIK3CA (human) [2] was less than 20 µM in each case.
For `CCC(CO)(CO)Nc1cc(-c2cccc(O)c2)nc(N2CCOCC2)n1`, the IC50 against PIK3CA (human) [1] and on PIK3CA (human) [2] was less than 20 µM throughout.
`COc1ccc(Nc2cc(-c3cccc(O)c3)nc(N3CCOCC3)n2)cc1F` showed an IC50 on PIK3CA (human) [1] of less than 20 µM.
On the same count and under the same terms, then `COc1ccc(Nc2cc(-c3cccc(O)c3)nc(N3CCOCC3)n2)cc1Cl`, with less than 20 µM.
For `COc1cccc(N2CCN(c3cc(-c4cccc(O)c4)nc(N4CCOCC4)n3)CC2)c1`, the IC50 against PIK3CA (human) [1] and at PIK3CA (human) [2] was less than 20 µM in each case.
In the case of `Oc1cccc(-c2cc(NCc3ccncc3)nc(N3CCOCC3)n2)c1`, the IC50 on PIK3CA (human) [1] and at PIK3CA (human) [2] was less than 20 µM throughout.
Regarding `CC(=O)N1CCc2ccc(Nc3cc(-c4cccc(O)c4)nc(N4CCOCC4)n3)cc21`, the IC50 on PIK3CA (human) [1] was less than 20 µM.
Take `CCCC(=O)Oc1cccc(-c2cc(Nc3cccnc3)nc(N3CCOCC3)n2)c1`: the IC50 at PIK3CA (human) [1] and against PIK3CA (human) [2] was less than 20 µM in each case.
